Results from patent US20230109801A1 (Blue Oak Pharmaceuticals, Inc., priority 2020, published 2023).
Structures can show the parent of a compound that is named as a salt.

System: mice
Experiment: SmartCube in vivo neuropharmacological behavioral assay
Conditions: for minimal effective dose: Mus musculus, ip, dose having 50% or more total activity in SmartCube, i.p., read-out: MED (minimal effective dose); for AD: antidepressant, percent probability / AG: analgesic, percent probability / AP: antipsychotic, percent probability / AX: anxiolytic, percent probability / CE: cognitive enhancer, percent probability / HA: hallucinogenic, percent probability / MS: mood stabilizer, percent probability / PS, percent probability / SD: sedative hypnotic, percent probability / SE: side effects, percent probability / UN: uncharacterized CNS activity, percent probability / XG: anxiogenic, percent probability: SmartCube, i.p. 15 min before test, at the MED
Method in brief: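 Mice dosed i.p. with compound in Pharmasolve (NMP) 15 min before automated video capture of behavior; doses e.g. 0.3–30 mg/kg. Behavioral signature compared with reference-drug classes, giving per-class probability (0–100, 0 = LOQ); MED = lowest dose with ≥50% total activity.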

Row | SMILES | minimal effective dose | AD: antidepressant, percent probability | AG: analgesic, percent probability | AP: antipsychotic, percent probability | AX: anxiolytic, percent probability | CE: cognitive enhancer, percent probability | HA: hallucinogenic, percent probability | MS: mood stabilizer, percent probability | PS, percent probability | SD: sedative hypnotic, percent probability | SE: side effects, percent probability | UN: uncharacterized CNS activity, percent probability | XG: anxiogenic, percent probability
1 | Cc1cccc2c1C1CCC2N1C(C)C (stereo not drawn) [Compound 31, 3-Methyl-11-(propan-2-yl)-11-azatricyclo[6.2.1.0^2,7]undeca-2,4,6-triene hydrochloride] | 10 to 30 mg/kg | ++ (5% ≤ X < 25%) | ++ (5% ≤ X < 25%) | + (LOQ ≤ X < 5%) | ++ (5% ≤ X < 25%) | + (LOQ ≤ X < 5%) | + (LOQ ≤ X < 5%) | + (LOQ ≤ X < 5%) | + (LOQ ≤ X < 5%) | ++ (5% ≤ X < 25%) | + (LOQ ≤ X < 5%) | +++ (25% ≤ X < 50%) | + (LOQ ≤ X < 5%)
2 | CC(C)N1C2CCC1c1ccccc12 [Compound 42, 11-(Propan-2-yl)-11-azatricyclo[6.2.1.0^2,7]undeca-2,4,6-triene hydrochloride] | 10 to 30 mg/kg | ++ (5% ≤ X < 25%) | ++ (5% ≤ X < 25%) | + (LOQ ≤ X < 5%) | + (LOQ ≤ X < 5%) | + (LOQ ≤ X < 5%) | ++ (5% ≤ X < 25%) | + (LOQ ≤ X < 5%) | +++ (25% ≤ X < 50%) | + (LOQ ≤ X < 5%) | + (LOQ ≤ X < 5%) | ++ (5% ≤ X < 25%) | + (LOQ ≤ X < 5%)
3 | COCC(C)N1C2CCC1c1ccccc12 (stereo not drawn) [Compound 46, 11-(1-Methoxypropan-2-yl)-11-azatricyclo[6.2.1.0^2,7]undeca-2,4,6-triene hydrochloride] | > 30 mg/kg | + (LOQ ≤ X < 5%) | ++ (5% ≤ X < 25%) | + (LOQ ≤ X < 5%) | + (LOQ ≤ X < 5%) | + (LOQ ≤ X < 5%) | + (LOQ ≤ X < 5%) | + (LOQ ≤ X < 5%) | + (LOQ ≤ X < 5%) | + (LOQ ≤ X < 5%) | + (LOQ ≤ X < 5%) | + (LOQ ≤ X < 5%) | + (LOQ ≤ X < 5%)
4 | Clc1cccc2c1C1C=CC2N1 (stereo not drawn) [Compound 11, 3-Chloro-11-azatricyclo[6.2.1.0^2,7]undeca-2,4,6,9-tetraene hydrochloride] | > 30 mg/kg | + (LOQ ≤ X < 5%) | + (LOQ ≤ X < 5%) | + (LOQ ≤ X < 5%) | ++ (5% ≤ X < 25%) | ++ (5% ≤ X < 25%) | + (LOQ ≤ X < 5%) | + (LOQ ≤ X < 5%) | + (LOQ ≤ X < 5%) | + (LOQ ≤ X < 5%) | + (LOQ ≤ X < 5%) | ++ (5% ≤ X < 25%) | + (LOQ ≤ X < 5%)
5 | CC1=CC2NC1c1ccccc12 (stereo not drawn) [Compound 61, 9-Methyl-11-azatricyclo[6.2.1.0^2,7]undeca-2,4,6,9-tetraene hydrochloride] | > 30 mg/kg | ++ (5% ≤ X < 25%) | ++ (5% ≤ X < 25%) | + (LOQ ≤ X < 5%) | + (LOQ ≤ X < 5%) | + (LOQ ≤ X < 5%) | + (LOQ ≤ X < 5%) | + (LOQ ≤ X < 5%) | + (LOQ ≤ X < 5%) | + (LOQ ≤ X < 5%) | + (LOQ ≤ X < 5%) | + (LOQ ≤ X < 5%) | + (LOQ ≤ X < 5%)
6 | CC(C)C(C)N1C2C=CC1c1ccccc12 (stereo not drawn) [Compound 58, 11-(3-Methylbutan-2-yl)-11-azatricyclo[6.2.1.0^2,7]undeca-2,4,6,9-tetraene hydrochloride] | > 30 mg/kg | ++ (5% ≤ X < 25%) | + (LOQ ≤ X < 5%) | + (LOQ ≤ X < 5%) | + (LOQ ≤ X < 5%) | + (LOQ ≤ X < 5%) | + (LOQ ≤ X < 5%) | + (LOQ ≤ X < 5%) | + (LOQ ≤ X < 5%) | + (LOQ ≤ X < 5%) | + (LOQ ≤ X < 5%) | + (LOQ ≤ X < 5%) | + (LOQ ≤ X < 5%)
